Patent US20260001864A1, “COMPOUND CONTAINING SULFAMIDE STRUCTURE, AND PREPARATION METHOD THEREFOR AND APPLICATION THEREOF, AND PHARMACEUTICAL COMPOSITION AND APPLICATION” (Nanjing Shuohui Pharmatechnology Co., Ltd, priority 2021, published 2026)
Counter-ions that a name gives are not always drawn.

target: H+/K+-ATPase (rabbit gastric mucosal microsomes) (Oryctolagus cuniculus (Rabbit), UniProt P27112); assay: In vitro screening test of H+/K+-ATPase inhibition (malachite green); format: biochemical; conditions: pH 6.5, 37° C. 30 min, read-out: IC50, inhibitory effect on H+/K+-ATPase activity
Source text: This test example evaluates the inhibitory effects of the compounds of the present invention on the activity of H+/K+-ATPase by an in vitro screening test, and expresses them with the IC50 values of the compounds (obtained by calculating the inhibition rates at different concentrations).
• Compound solutions: The products (i.e., the compounds or the hydrochloride salt of compounds) obtained in the foregoing preparation examples of the present invention were each independently dissolved in DMSO to form solutions at suitable concentrations; • Buffer I: 50 mmol/L HEPEs-Tris, pH=6.5, 5 mmol/L magnesium chloride, […] valinomycin (J&K Scientific Ltd., goods No.: 227304); • Buffer II: 50 mmol/L HEPEs-Tris, pH=6.5, 5 mmol/L magnesium chloride, […] valinomycin, 5 mmol/L potassium chloride; • 5-adenosine triphosphate (ATP, Sigma-Aldrich, goods No.: A2383) solution: Dilute ATP with buffer I to 5 mM; • Malachite green solution: Dissolve 0.12 wt % malachite green (J&K Scientific Ltd., goods No.: 913120) in 2.5 mol/L sulfuric acid, 7.5 wt % ammonium molybdate (J&K Scientific Ltd., goods No.: 128321) and 11% Tween 20(V/V). During use, sulfuric acid, ammonium molybdate and Tween 20 are mixed in a ratio of 100:25:2; • Rabbit gastric mucosal microsomes (rich in H+/K+-ATPase, self-extracted), extracted by sucrose gradient centrifugation: The rabbit stomach was washed with tap water and 3M NaCl solution, respectively, and then the surface water was removed with filter paper. A pre-cooled homogenization buffer (4 ml/g tissue) was added and homogenized for 2-5 min in a tissue homogenizer. After the homogenizing, if there are large tissue particles, they can be removed by centrifugation (600 g, 10 min). The supernatant was then transferred to a clean centrifuge tube and centrifuged at 20,000 g for 30 min, then the supernatant was transferred to a clean centrifuge tube and further centrifuged at 100,000 g for 90 min and the precipitate was collected; the precipitate was suspended in homogenate and blown evenly, and the protein concentration was measured by the Bradford's method and adjusted to 10 mg/ml; 7.5 wt % Ficoll's layering solution was added in equal proportions. After centrifugation at 100,000 g for 60 min, the middle layer (H^+/K^+-ATPase-enriched gastric membranes) was collected in a clean centrifuge tube, diluted with homogenate by 4-5 times, and then centrifuged at 100,000 g for another 90 min, and the precipitate was collected; the precipitate was suspended in homogenate and homogenized in a glass homogenizer, and the protein concentration was measured by the Bradford's method and adjusted to 22.5 mg/ml. It was frozen at −80° C. and stored for future use.
5 μL of rabbit gastric mucosal microsomes (H^+/K^+-ATPase) was added to 45 μL of buffer II, then 5 μL of compound solution was added, and then 5 μL of 5 mM ATP solution was added to start the reaction and pre-react at 37° C. for 30 min. 15 μL of malachite green solution was added to terminate the reaction, balancing was conducted at room temperature for 20 min, and read the optical absorbance at 620 nm.
Meanwhile, the reaction of the same volume was carried out without addition of potassium chloride as a background, which was subtracted when calculating enzymatic activity.

Sequence of H+/K+-ATPase (rabbit gastric mucosal microsomes) (P27112 whole entry): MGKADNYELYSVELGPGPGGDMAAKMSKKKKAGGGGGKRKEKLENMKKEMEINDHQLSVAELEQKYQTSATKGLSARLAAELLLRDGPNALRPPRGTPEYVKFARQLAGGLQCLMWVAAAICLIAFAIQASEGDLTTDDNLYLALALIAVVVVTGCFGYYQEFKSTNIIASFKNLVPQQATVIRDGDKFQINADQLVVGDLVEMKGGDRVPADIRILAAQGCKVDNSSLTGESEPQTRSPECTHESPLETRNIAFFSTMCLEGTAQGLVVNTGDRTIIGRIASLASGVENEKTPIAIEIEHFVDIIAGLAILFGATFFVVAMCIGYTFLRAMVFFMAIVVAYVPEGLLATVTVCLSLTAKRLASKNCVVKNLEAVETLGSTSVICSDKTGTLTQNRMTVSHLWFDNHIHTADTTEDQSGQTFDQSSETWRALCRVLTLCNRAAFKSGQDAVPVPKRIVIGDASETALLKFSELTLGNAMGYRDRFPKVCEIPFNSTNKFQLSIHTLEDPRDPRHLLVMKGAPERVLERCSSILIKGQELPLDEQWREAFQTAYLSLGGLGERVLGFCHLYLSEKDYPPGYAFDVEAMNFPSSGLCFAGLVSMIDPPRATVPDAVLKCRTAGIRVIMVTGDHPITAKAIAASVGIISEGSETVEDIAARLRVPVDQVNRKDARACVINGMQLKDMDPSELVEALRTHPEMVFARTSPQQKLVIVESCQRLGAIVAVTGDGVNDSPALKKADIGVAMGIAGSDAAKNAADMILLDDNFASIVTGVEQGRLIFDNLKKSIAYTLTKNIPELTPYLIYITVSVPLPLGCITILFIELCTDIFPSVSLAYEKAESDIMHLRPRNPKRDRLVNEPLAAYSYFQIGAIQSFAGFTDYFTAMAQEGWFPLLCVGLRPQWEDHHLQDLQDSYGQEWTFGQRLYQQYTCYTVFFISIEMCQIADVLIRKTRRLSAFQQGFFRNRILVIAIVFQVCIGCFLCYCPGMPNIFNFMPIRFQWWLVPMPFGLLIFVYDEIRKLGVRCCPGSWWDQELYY
Sequence of H+/K+-ATPase (rabbit gastric mucosal microsomes) (P18597 whole entry partner): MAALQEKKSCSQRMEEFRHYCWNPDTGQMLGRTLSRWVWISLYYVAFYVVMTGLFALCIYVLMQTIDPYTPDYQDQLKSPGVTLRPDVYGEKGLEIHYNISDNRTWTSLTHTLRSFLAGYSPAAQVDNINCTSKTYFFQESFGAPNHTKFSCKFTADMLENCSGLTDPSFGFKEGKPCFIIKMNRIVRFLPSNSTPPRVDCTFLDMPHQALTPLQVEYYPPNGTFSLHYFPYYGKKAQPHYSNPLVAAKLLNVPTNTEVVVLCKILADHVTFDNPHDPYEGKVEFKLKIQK

Compared with `CNCc1cc(-c2ccc(OC[C@@H]3COCCO3)cc2F)n(S(=O)(=O)c2cccnc2)c1` [Compound 1, (S)-1-(5-(4-((1,4-dioxane-2-yl)methoxy)-2-fluorophenyl)-1-(pyridine-3-ylsulfonyl)-1H-pyrrole-3-yl)-N-methyl methylamine hydrochloride], `CNCc1cc(-c2ccc(OC[C@H]3CO3)cc2F)n(S(=O)(=O)c2cccnc2)c1` [Compound 49] is 4-fold lower in IC50: 585 nM for the first, 146 nM for the second.

`CNCc1cc(-c2ccc(OCC3CCC3)cc2F)n(S(=O)(=O)c2cccnc2)c1` [Compound 2] and `CNCc1cc(-c2ccc(OCC3CCCC3)cc2F)n(S(=O)(=O)c2cccnc2)c1` [Compound 3] are within 1.5-fold of each other in IC50: 24.5 nM for the first, 20.9 nM for the second.

First: CNCc1cc(-c2ccc(OCC3CCCCC3)cc2F)n(S(=O)(=O)c2cccnc2)c1 [Compound 4]
Second: CNCc1cc(-c2ccc(OCC3CCNCC3)cc2F)n(S(=O)(=O)c2cccnc2)c1 [Compound 21]
The IC50 of the first is 90-fold lower: 30.9 nM for the first, 2790 nM for the second.

First: CNCc1cc(-c2ccc(OCC3CCC(F)(F)CC3)cc2F)n(S(=O)(=O)c2cccnc2)c1 [Compound 5]
Second: CNCc1cc(-c2ccc(OCC3CCN(C)CC3)cc2F)n(S(=O)(=O)c2cccnc2)c1 [Compound 22]
The IC50 of the first is 5.6-fold lower: 82.4 nM for the first, 458 nM for the second. The first is the more potent here.

Going from `CNCc1cc(-c2ccc(OCC3CCCCO3)cc2F)n(S(=O)(=O)c2cccnc2)c1` (stereo not drawn) [Compound 7] to `CNCc1cc(-c2ccc(OC[C@@H]3CO3)cc2F)n(S(=O)(=O)c2cccnc2)c1` [Compound 50], the IC50 falls from 254 nM to 114 nM (2.2-fold).

Going from `CNCc1cc(-c2ccc(OC(C)C3CCOCC3)cc2F)n(S(=O)(=O)c2cc(F)cc(F)c2)c1` (stereo not drawn) [Compound 9] to `CNCc1cc(-c2ccc(OC(C)C3CCOCC3)cc2F)n(S(=O)(=O)c2cccc(F)c2)c1` (stereo not drawn) [Compound 19], the IC50 rises from 25.4 nM to 233 nM (9.2-fold). The first is the more potent here.

First: CNCc1cc(-c2ccc(OC(C)C3CCOCC3)cc2F)n(S(=O)(=O)c2cccc(C(F)(F)F)c2)c1 (stereo not drawn) [Compound 10]
Second: CNCc1cc(-c2ccc(OCC3CCOCC3)cc2F)n(S(=O)(=O)c2cccc(C(F)(F)F)c2)c1 [Compound 39]
The IC50 of the first is 1.6-fold higher: 55.3 nM for the first, 34.6 nM for the second. The second is the more potent here.

Compared with `CNCc1cc(-c2ccc(OC(C)C3CCOCC3)cc2F)n(S(=O)(=O)c2ccc(C)c(F)c2)c1` (stereo not drawn) [Compound 11], `CNCc1cc(-c2ccc(OC(C)C3CCOCC3)cc2F)n(S(=O)(=O)c2cc(F)ccc2F)c1` (stereo not drawn) [Compound 12] is 2.1-fold higher in IC50: 65.2 nM for the first, 138 nM for the second. The first is the more potent here.

Compared with `CNCc1cc(-c2ccc(OC(C)C3CCOCC3)cc2F)n(S(=O)(=O)c2cccc(C#N)c2)c1` (stereo not drawn) [Compound 13], `CNCc1cc(-c2ccc(OC(C)C3CCOCC3)cc2F)n(S(=O)(=O)c2ccc(C#N)cc2)c1` (stereo not drawn) [Compound 18] is 2.3-fold higher in IC50: 114 nM for the first, 262 nM for the second.

Compared with `CNCc1cc(-c2ccc(OC(C)C3CCOCC3)cc2F)n(S(=O)(=O)c2cccc(OCCOC)c2)c1` (stereo not drawn) [Compound 14, 1-(5-(2-fluoro-4-(1-(tetrahydro-2H-pyran-4-yl)ethoxy)phenyl)-1-((3-(2-methoxyethoxy)phenyl)sulfonyl)-1H-pyrrol-3-yl)-N-methylmethylamine-hydrochloride], `CNCc1cc(-c2ccc(OC(C)C3CCOCC3)cc2F)n(S(=O)(=O)c2cccc(OCCCCOC)c2)c1` (stereo not drawn) [Compound 38] is 2.2-fold lower in IC50: 443 nM for the first, 199 nM for the second. The second is the more potent here.

Going from `CNCc1cc(-c2ccc(OC(C)C3CCOCC3)cc2F)n(S(=O)(=O)c2cccc(OC)c2)c1` (stereo not drawn) [Compound 15] to `CNCc1cc(-c2ccc(OC(C)C3CCOCC3)cc2F)n(S(=O)(=O)c2cccc(OCC3CCC3)c2)c1` (stereo not drawn) [Compound 33], the IC50 rises from 83.9 nM to 883 nM (11-fold). The first is the more potent here.

`CNCc1cc(-c2ccc(OC(C)C3CCOCC3)cc2F)n(S(=O)(=O)c2c(F)cccc2F)c1` (stereo not drawn) [Compound 16] and `CNCc1cc(-c2ccc(OC(C)C3CCOCC3)cc2F)n(S(=O)(=O)c2ccc(F)cc2F)c1` (stereo not drawn) [Compound 17] are within 1.5-fold of each other in IC50: 253 nM for the first, 265 nM for the second.

Going from `CNCc1cc(-c2ccc(OC(C)C3CCCCC3)cc2F)n(S(=O)(=O)c2cccnc2)c1` (stereo not drawn) [Compound 20] to `CNCc1cc(-c2ccc(OC)cc2F)n(S(=O)(=O)c2cccnc2)c1` [Compound 40], the IC50 falls from 294 nM to 123 nM (2.4-fold). The second is the more potent here.

`CNCc1cc(-c2ccc(OCC3CCN(C(C)=O)CC3)cc2F)n(S(=O)(=O)c2cccnc2)c1` [Compound 23] and `CCNCc1cc(-c2ccc(OCC3CCOCC3)cc2F)n(S(=O)(=O)c2cccnc2)c1` [Compound 46] are within 1.5-fold of each other in IC50: 908 nM for the first, 639 nM for the second.

First: CNCc1cc(-c2ccc(OCC3CCOCC3)cc2F)n(S(=O)(=O)c2cccc(F)c2)c1 [Compound 24]
Second: CNCc1cc(-c2ccc(OCC3CCOCC3)cc2F)n(S(=O)(=O)c2cccc(Cl)c2)c1 [Compound 25]
The IC50 of the first is 2.3-fold higher: 136 nM for the first, 58.5 nM for the second.

Compared with `CNCc1cc(-c2ccc(OCC3CCOCC3)cc2F)n(S(=O)(=O)c2ccc(C)c(F)c2)c1` [Compound 26], `CNCc1cc(-c2ccc(OCC3CCOCC3)cc2F)n(S(=O)(=O)c2cc(F)cc(F)c2)c1` [Compound 27] is 5.2-fold lower in IC50: 202 nM for the first, 38.7 nM for the second.

First: CNCc1cc(-c2ccc(OCC3CCOCC3)cc2F)n(S(=O)(=O)c2ccc(C#N)cc2)c1 [Compound 29]
Second: CNCc1cc(-c2ccc(OCC3CCOCC3)cc2F)n(S(=O)(=O)c2cccc(OCCF)c2)c1 [Compound 30]
The IC50 of the first is 1.6-fold lower: 290 nM for the first, 474 nM for the second. The first is the more potent here.

`CCCCCOc1cccc(S(=O)(=O)n2cc(CNC)cc2-c2ccc(OCC3CCOCC3)cc2F)c1` [Compound 31] and `CNCc1cc(-c2ccc(OCC3CCOCC3)cc2F)n(S(=O)(=O)c2cccc(OCCCOC)c2)c1` [Compound 32] are within 1.5-fold of each other in IC50: 1210 nM for the first, 822 nM for the second.

Compared with `CNCc1cc(-c2ccc(OCC3CCOCC3)cc2F)n(S(=O)(=O)c2cccc(OCC3CCCC3)c2)c1` [Compound 34], `CNCc1cc(-c2ccc(OCC3CCCCC3)cc2F)n(S(=O)(=O)c2cccc(OCCF)c2)c1` [Compound 35] is 30-fold higher in IC50: 285 nM for the first, 8650 nM for the second. The first is the more potent here.

First: CCCCCOc1cccc(S(=O)(=O)n2cc(CNC)cc2-c2ccc(OCC3CCCCC3)cc2F)c1 [Compound 36]
Second: CNCc1cc(-c2ccc(OCCCOC)cc2F)n(S(=O)(=O)c2cccnc2)c1 [Compound 43]
The IC50 of the first is 4.7-fold higher: 2270 nM for the first, 482 nM for the second.

`CCOc1ccc(-c2cc(CNC)cn2S(=O)(=O)c2cccnc2)c(F)c1` [Compound 41] and `CNCc1cc(-c2ccc(OCC(C)C)cc2F)n(S(=O)(=O)c2cccnc2)c1` [Compound 44] are within 1.5-fold of each other in IC50: 567 nM for the first, 500 nM for the second.

First: CNCc1cc(-c2ccc(OCC(F)F)cc2F)n(S(=O)(=O)c2cccnc2)c1 [Compound 42]
Second: CNCc1cc(-c2ccc(OC[C@@H]3C[C@@H]3F)cc2F)n(S(=O)(=O)c2cccnc2)c1 [Compound 53]
The IC50 of the first is 7.1-fold higher: 401 nM for the first, 56.1 nM for the second.

First: CNCc1cc(-c2ccc(OCC(C)(C)C)cc2F)n(S(=O)(=O)c2cccnc2)c1 [Compound 45]
Second: CNCc1cc(-c2ccc(OCC(C)(C)O)cc2F)n(S(=O)(=O)c2cccnc2)c1 [Compound 52]
The IC50 of the first is 1.8-fold lower: 204 nM for the first, 372 nM for the second.

First: CNCc1cc(-c2ccc(OC(C)C3CCOCC3)c(F)c2)n(S(=O)(=O)c2cccnc2)c1 (stereo not drawn) [Compound 47]
Second: CNCc1cn(S(=O)(=O)c2cccnc2)c(-c2ccc(OCC3CC3)cc2F)c1F [Compound 51]
The IC50 of the first is 7-fold higher: 247 nM for the first, 35.2 nM for the second.

First: CNCc1cc(-c2ccc(OCc3cc(F)ccc3F)cc2F)n(S(=O)(=O)c2cccnc2)c1 [Compound 54]
Second: CNCc1cc(-c2ccc(OCc3ccc(F)cc3F)cc2F)n(S(=O)(=O)c2cccnc2)c1 [Compound 55]
The IC50 of the first is 2.1-fold higher: 17.8 nM for the first, 8.6 nM for the second. The second is the more potent here.

Compared with `CNCc1cc(-c2ccc(OCc3c(F)cccc3F)cc2F)n(S(=O)(=O)c2cccnc2)c1` [Compound 56], `CNCc1cc(-c2ccc(OCc3ccc(F)c(F)c3)cc2F)n(S(=O)(=O)c2cccnc2)c1` [Compound 57] is 3.5-fold higher in IC50: 13.3 nM for the first, 46.3 nM for the second. The first is the more potent here.

Going from `CNCc1cc(-c2ccc(OCc3cc(F)cc(F)c3)cc2F)n(S(=O)(=O)c2cccnc2)c1` [Compound 58] to `CNCc1cc(-c2ccc(OCc3ccc(OC(F)F)cc3)cc2F)n(S(=O)(=O)c2cccnc2)c1` [Compound 61], the IC50 rises from 25.7 nM to 51.3 nM (2-fold). The first is the more potent here.

Going from `CNCc1cc(-c2ccc(OCc3ccccc3OC(F)F)cc2F)n(S(=O)(=O)c2cccnc2)c1` [Compound 59] to `CNCc1cc(-c2ccc(OCc3ccccc3OC(F)(F)F)cc2F)n(S(=O)(=O)c2cccnc2)c1` [Compound 60], the IC50 rises from 41.3 nM to 186 nM (4.5-fold).

`CNCc1cc(-c2ccc(OCc3cccc4ccccc34)cc2F)n(S(=O)(=O)c2cccnc2)c1` [Compound 62] showed an IC50 of 35.9 nM.
